Assay results reported in publication PMC12565843, “Phenolic Compounds from Hypericum cerastoides (Spach) N. Robson: Dereplication via UHPLC-HRMS/MS, Isolation, Identification, and Preliminary Biological Evaluation Focusing on Radical-Scavenging, Anti-α-Glucosidase, and Pro-Lipase Activities” (Metabolites, 2025).
Several values for one entry are separate records, joined by “and”; a condition that tells them apart may be missing. Equal values may be shown once.

How the values were obtained:
[1] = DPPH radical-scavenging activity assay; details: compounds and controls at 100 µM in EtOH, 30 min, 517 nm; mean ± SD
Protocol: The scavenging activity of phenolic compounds against DPPH radicals was assessed using Kokanova-Nedialkova and Nedialkov methods, with some modifications. Briefly, 300 µL of each compound in EtOH (100 µM) was mixed with 300 µL of DPPH ethanol solution (100 µM). The reaction mixture was thoroughly vortexed and left in the dark at room temperature for 30 min. The absorbance of the mixture was measured at 517 nm. The following equation calculates the ability to scavenge DPPH radicals: %DPPH radical scavenging activity=Abscontrol−Abssample/Abscontrol×100, where Abscontrol is the absorbance of the DPPH radical in EtOH, and Abssample is the absorbance of the DPPH radical solution mixed with a sample.
Positive controls were vitamin C (100 µM) and Trolox (100 µM).

[2] = ABTS radical-scavenging activity assay; details: compounds and controls at 100 µM in EtOH, 7 min, 734 nm, mean ± SD
Protocol: For ABTS assay, the procedure followed the method of Kokanova-Nedialkova and Nedialkov with some modifications. The stock solutions included 7 mM ABTS and 2.4 mM potassium persulfate. The working solution was then prepared by mixing the two stock solutions in equal quantities and allowing them to react for 12–14 h at room temperature in the dark. The solution was then diluted by mixing 1 mL of the ABTS solution with 30 mL of ethanol. A fresh ABTS solution was prepared for each assay. Furthermore, 300 µL of each compound in EtOH (100 µM) was allowed to react with 1 mL of the ABTS solution, and the absorbance was taken at 734 nm after 7 min using a spectrophotometer. The ABTS scavenging capacity of the compound was calculated as: %ABTS radical scavenging activity=Abscontrol−Abssample/Abscontrol×100 where Abscontrol is the absorbance of the ABTS radical in ethanol, and Abssample is the absorbance of an ABTS radical solution mixed with a sample.
Vitamin C (100 µM) and Trolox (100 µM) were used as positive controls.

α-glucosidase = experiment: Anti-α-glucosidase activity assay (LC-MS, p-nitrophenyl-α-D-glucopyranoside substrate); format: biochemical; details: five concentrations 1000-62.5 µM, NA = the compound is not active; for IC50: read-out: α-Glucosidase Inhibitory Activity (IC50 ± SD)
Protocol: The α-Glucosidase inhibitory activity was determined by LC-MS using p-nitrophenyl-α-D-glucopyranoside as the substrate, as described by Kokanova-Nedialkova et al.. The assay mixture (160 µL) was prepared accordingly to Kang et al. with some modifications. An aliquot of 20 µL of a sample in phosphate buffer (pH 6.8) containing 10% DMSO (or phosphate buffer containing 10% DMSO as a control), 100 µL phosphate buffer (pH 6.8), and 20 µL enzyme solution (0.2 U/mL α-glucosidase in phosphate buffer) were mixed and incubated at 37 °C for 15 min. Then, 20 µL of substrate solution (2.5 mM p-nitrophenyl-α-D-glucopyranoside, prepared in the same buffer) was added. The reaction was processed at 37 °C for 15 min and stopped by adding 840 µL acetonitrile (AcCN). The supernatant was then used for LC-MS analysis after centrifugation at 12,000 rpm for 10 min. The amount of p-nitrophenol released from p-nitrophenyl-α-D-glucopyranoside was quantified using liquid chromatography-[…] (LC-MS). The inhibitory rates (%) were calculated according to the formula: % α−Glucosidase inhibitory activity=Aк−Asample/Aк×100, where Aк is the area of the p-nitrophenol peak in the control, and Asample is the area of the p-nitrophenol peak in the sample.

[3] = target: T1, lipase from porcine pancreas, Type II (Sus scrofa, UniProt P00591); experiment: Assay for modulation of lipase activity (LC-MS, p-nitrophenyl laurate substrate); format: biochemical; details: for Fold increase of lipase activity compared to the control: 200 µM; for Effect on lipase activity (in words): tested at 200-12.5 µM
T1 construct: lipase from porcine pancreas, Type II; purchased Sigma-Aldrich L3126; host or cells: porcine pancreas (tissue-derived)
T1 sequence (P00591 1-450): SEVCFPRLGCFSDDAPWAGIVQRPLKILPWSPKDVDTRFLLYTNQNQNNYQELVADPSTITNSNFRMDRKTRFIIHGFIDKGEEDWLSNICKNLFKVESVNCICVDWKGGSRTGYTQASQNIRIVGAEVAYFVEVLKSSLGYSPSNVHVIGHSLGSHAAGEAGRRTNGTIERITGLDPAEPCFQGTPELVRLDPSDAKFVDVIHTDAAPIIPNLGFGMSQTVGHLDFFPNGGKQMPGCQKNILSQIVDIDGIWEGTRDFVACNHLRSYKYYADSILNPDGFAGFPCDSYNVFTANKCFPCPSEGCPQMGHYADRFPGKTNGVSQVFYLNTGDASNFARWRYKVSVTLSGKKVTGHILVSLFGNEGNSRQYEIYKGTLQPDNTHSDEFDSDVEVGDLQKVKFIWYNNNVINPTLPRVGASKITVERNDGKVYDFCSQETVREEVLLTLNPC
Protocol: This assay was adapted from previous reports for the determination of anti-lipase and pro-lipase activity by LC-MS [14]. Briefly, lipase from porcine pancreas, Type II (Sigma-Aldrich, St. Louis, MA, USA, product L3126), was dissolved in ultra-pure water at a 5 mg/mL concentration. The supernatant was then used after centrifugation at 15,000 rpm for 10 min. The assay buffer was 100 mM Tris buffer (pH 8.2), and p-nitrophenyl laurate was used as the substrate. The substrate stock was 2 mg p-nitrophenyl laurate dissolved in 1 mL isopropanol and 4 mL 5 mM sodium acetate (pH 5.0) containing 1% Triton X-100 (Fisher Scientific, Bridgewater, NJ, USA). The mixture was heated to facilitate dissolution, thoroughly mixed, and then cooled to room temperature. The assay mixture (1 mL) contained 20 µL of a sample in DMSO (or DMSO as a control), 860 µL of Tris buffer (pH 8.2), and 30 µL of enzyme solution. The mixture was combined, shaken, and incubated at 37 °C for 15 min. Then, 90 µL of substrate solution was added and shaken again. The reaction was processed at 37 °C for 2 h and stopped by adding 800 µL CH3CN to 200 µL of the assay mixture. The supernatant was then used for LC-MS analysis after centrifugation at 15,000 rpm for 10 min. The amount of p-nitrophenol released from p-nitrophenyl laurate was quantified using LC-MS. Lipase inhibitory activity (%) was calculated according to the formula: % Lipase inhibitory activity=Aк−Asample/Aк×100, where Aк is the area of the p-nitrophenol peak in the control, and Asample is the area of the p-nitrophenol peak in the sample.
Pro-lipase activity (%) was calculated according to the formula: % Prolipase activity=Asample−Ak/Aк×100, where Aк is the area of the p-nitrophenol peak in the control, and Asample is the area of the p-nitrophenol peak in the sample.

Structure (SMILES) | DPPH % (radical-scavenging activity) [1] | ABTS % (radical-scavenging activity) [2] | IC50 (α-glucosidase) [µM] | Fold increase of lipase activity compared to the control [3] | Effect on lipase activity (in words) [3] | α-Glucosidase Inhibitory Activity (IC50 ± SD) (α-glucosidase) | ABTS % (radical-scavenging activity) ([2]; listed as Vitamin C) [%]
O=c1c(OC2OC(CO)C(O)C(O)C2O)c(-c2cc(O)c(O)c(O)c2)oc2cc(O)cc(O)c12 (centres unmarked) [HC3, myricetin-3-O-galactoside] | 82.70% and 82.70 ± 0.34% | 96.04% and 96.04 ± 0.37% | 206 ± 13 | fivefold | do not inhibit lipase activity |  | 
COC(=O)C1(O)CC(O)C(O)C(OC(=O)C=Cc2ccc(O)c(O)c2)C1 (centres unmarked) [HC5, methyl ester of chlorogenic acid] | 84.57% and 84.57 ± 0.27% | 71.27% and 71.27 ± 0.08% |  |  | do not inhibit lipase activity | did not exhibit measurable inhibitory activity | 
CC(C)C1CC(OC2OC(COC(=O)C=Cc3ccc(O)cc3)C(O)C(O)C2O)CC(=O)O1 [HC6, 4-O-{6-[(2E)-p-Hydroxycinnamoyl]-β-D-Glucopyranosyl}-6-isopropyl-tetrahydro-2H-pyran-2-one] | 15.93% and 15.93 ± 0.33% | 25.50% and 25.50 ± 0.12% | 371 ± 9 |  | do not inhibit lipase activity |  | 
COC(=O)CC(CC(O)C(C)C)O[C@@H]1O[C@H](COC(=O)/C=C/c2ccc(O)cc2)[C@@H](O)[C@H](O)[C@H]1O (stereo partly drawn) [HC7, Methyl 3-O-{6-[(2E)-p-hydroxycinnamoyl]-β-glucopyranosyl}-6-methyl-5-hydroxyheptanoate] | 11.48% and 11.48 ± 0.21% | 26.88% and 26.88 ± 0.33% |  |  | did not show any significant effect on lipase activity | did not exhibit measurable inhibitory activity | 
CC(=O)OC1C(Oc2cc(O)cc(O)c2C(=O)c2ccccc2)OC(CO)C(O)C1O [HC4, 4,6-Dihydroxy Benzophenone-2-O-β-D-2″-Acetylglucopyranoside] | 14.63% and 14.63 ± 0.50% | 70.20% and 70.20 ± 0.23% |  |  | did not show any significant effect on lipase activity | did not exhibit measurable inhibitory activity | 
O=C1O[C@H]([C@@H](O)CO)C(O)=C1O [Vit C, reference compound] | 59.44 ± 0.42% | 66.21 ± 0.45% |  |  |  |  | 66.21
O=C(C=Cc1ccc(O)cc1)OC1CC(O)(C(=O)O)CC(O)C1O (centres unmarked) [HC1, coumaroylquinic acid] | 18.95% and 18.95 ± 0.36% | 22.12% and 22.12 ± 0.63% | 44 ± 5 |  | do not inhibit lipase activity |  | 
O=c1c(OC2OC(CO)C(O)C(O)C2O)c(-c2cc(O)c(O)c(O)c2)oc2cc(O)cc(O)c12 (centres unmarked) [HC2, myricetin-3-O-glucoside] | 84.32% and 84.32 ± 0.23% | 97.23% and 97.23 ± 0.45% |  | fivefold | do not inhibit lipase activity | did not exhibit measurable inhibitory activity | 
Cc1c(C)c2c(c(C)c1O)CCC(C)(C(=O)O)O2 (centres unmarked) [Trolox, reference compound] | 88.33 ± 0.33% | 94.16% and 94.16 ± 0.32% |  |  |  |  | 
